Data as given in US7655677B2, “Composition and method for controlling house insect pest” (priority 2002, dated 2010).

Assays:
Format in all cases: in vivo
Reticulitermes speratus [1] = assay: Test Example 15: fresh pulp poison bait, termite mortality after 18 days; details: fresh pulp bait 0.1%
Excerpt: Fresh pulp (2 cm×2 cm×0.1 cm) was immersed in a methanol solution of a sample compound. Then, it was dried to obtain a fresh pulp poison bait chemical containing 0.1% of the sample compound. This poison bait chemical was placed in a cylindrical cup made of acrylic resin (i.e. a cup having a hole with a diameter of 10 mm formed in the bottom and having hard plaster (Dental Stone) set at the bottom in a thickness of 10 mm), and 20 termite workers (Reticulitermes speratus) were released thereon. The cup was placed in a container having wet cotton laid over the bottom, and the container was maintained at room temperature of 25° C. for 18 days, whereupon the number of dead termites in the cup was examined, and the mortality was calculated.

Coptotermes formosanus [2] = assay: Test Example 24: treated filter paper in Petri dish, termite mortality on 21st or 28th day; details: 21st day
Experimental: (§1) Mortality (%)=(Number of dead termite workers/15 termite workers)×100
(§2) Further, by the Colby's formula, the theoretical value (%) of mortality can be calculated. In a case where the actual mortality (%) is higher than the theoretical value (%), it can be said that the composition of the present invention has a synergistic effect for controlling the house insect pest.
A filter paper having a diameter of 80 mm was placed in a plastic Petri dish, and 1 ml of a pesticide solution having a predetermined concentration was dropped thereon, whereupon 10 termite workers (Coptotermes formosanus) were released, and a cover was put on the Petri dish. This plastic Petri dish was put in a container having wet cotton laid over the bottom and maintained at room temperature of 25° C. On 21 or 28th day after the treatment, the number of dead termites in the Petri dish was examined, and the mortality was calculated in the same manner as Test Example 1.

Reticulitermes speratus [3] = assay: Test Example 4: treated filter paper in Petri dish, termite mortality after 25 days
Experimental: as §1, §2
(§3) A filter paper having a diameter of 80 mm was placed in a plastic Petri dish, and 1 ml of a pesticide solution having a predetermined concentration, was dropped thereon. After the treatment, the solvent was sufficiently evaporated, and then, 1 ml of distilled water was impregnated to the treated filter paper, whereupon 10 termite workers (Reticulitermes speratus) were released. The plastic Petri dish was placed in a container having wet cotton laid over the bottom, and the container was maintained at 25° C. for 25 days, whereupon the number of dead termites in the Petri dish was examined, and the mortality was calculated in the same manner as in Test Example 1.

Coptotermes formosanus [4] = assay: Test Example 13: Japanese red pine poison bait, termite mortality and abnormal ratio with time
Excerpt: A wood block of Japanese red pine (2 cm×2 cm×0.5 cm) subjected to boiling treatment in hot water, was immersed in a methanol solution of a sample compound, and then, it was dried to obtain a Japanese red pine poison bait chemical containing the sample compound in a predetermined concentration. This poison bait chemical was put into a cylindrical cup made of acrylic resin (i.e. a cup having a hole with a diameter of 10 mm formed in the bottom and having hard plaster (Dental Stone) set at the bottom in the thickness of 10 mm), and 15 termite workers (Coptotermes formosanus) were released thereon. The cup was placed in a container having wet cotton laid over the bottom, and the container was maintained at room temperature of 25° C., whereby the number of dead termites and abnormal termites in the cup was examined as the time passed, and the mortality was calculated.

Coptotermes formosanus [5] = assay: Test Example 20: treated sandy soil, termite mortality and abnormal ratio with time
Experimental: Sandy soil passed through a sieve of 20 mesh, was dried at a temperature of 60° C. to a constant weight, and 4 g of the soil thus obtained, was packed into a cup having a diameter of 60 mm. 1 ml of a pesticide solution adjusted to a predetermined concentration was added and thoroughly mixed, whereupon 15 termite workers (Coptotermes formosanus) were leased. The cup was placed in a container having wet cotton laid over the bottom, and the container was maintained at room temperature of 25° C., whereby the number of dead termites in the cup was examined as the time passed, and the mortality was calculated.

Reticulitermes speratus [6] = assay: Test Example 3: treated filter paper in Petri dish, termite mortality after 37 days
Experimental: as §1, §2
as §3, with “for 37” for “for 25”

[7] = 1000 ppm solution, 4 Days later

In the case of `CC(=NN=C(Cc1ccc(C(F)(F)F)cc1)c1ccc(F)cc1)N(C)C` [Compound No. II-2, [4′-fluoro-2-(4-trifluoromethylphenyl)acetophenone]N′-[1-(dimethylamino)ethylidene]hydrazone], the Mortality (Reticulitermes speratus [1]) is reported as 100%, the Mortality (Coptotermes formosanus [2]; II-2 5 ppm alone) is reported as 0% and the Mortality (Coptotermes formosanus [2]; II-2 10 ppm alone) is reported as 20%. The Mortality (Coptotermes formosanus [2]; II-2 20 ppm alone) was 60%, the Mortality (Reticulitermes speratus [3]; II-2 5 ppm alone) was 0% and the Mortality (Reticulitermes speratus [3]; II-2 10 ppm alone) was 10%. For the same compound, the Mortality (Coptotermes formosanus [4]; bait 0.005%, 4 Days later) was 0%, the Mortality (Coptotermes formosanus [4]; bait 0.005%, 8 Days later) was 0% and the Mortality (Coptotermes formosanus [4]; bait 0.005%, 10 Days later) was 0%. For the same compound, the Mortality (Coptotermes formosanus [4]; bait 0.005%, 14 Days later) was 30%, the Mortality (Coptotermes formosanus [4]; bait 0.005%, 17 Days later) was 30 (30) % and the abnormal ratio (Coptotermes formosanus [4]; bait 0.005%, 17 Days later) was 30 (30) %. It also gave a Mortality (Coptotermes formosanus [4]; bait 0.005%, 23 Days later) of 100%, a Mortality (Coptotermes formosanus [4]; bait 0.01%, 4 Days later) of 0% and a Mortality (Coptotermes formosanus [4]; bait 0.01%, 8 Days later) of 40%. For the same compound, the abnormal ratio (Coptotermes formosanus [4]; bait 0.01%, 8 Days later) was 60%, the Mortality (Coptotermes formosanus [4]; bait 0.01%, 10 Days later) was 55% and the abnormal ratio (Coptotermes formosanus [4]; bait 0.01%, 10 Days later) was 45%. The Mortality (Coptotermes formosanus [4]; bait 0.01%, 14 Days later) was 60%, the abnormal ratio (Coptotermes formosanus [4]; bait 0.01%, 14 Days later) was 40% and the Mortality (Coptotermes formosanus [4]; bait 0.01%, 17 Days later) was 100%. For the same compound, the Mortality (Coptotermes formosanus [4]; bait 0.01%, 23 Days later) was 100%, the Mortality (Coptotermes formosanus [4]; bait 0.05%, 4 Days later) was 47% and the Mortality (Coptotermes formosanus [4]; bait 0.05%, 8 Days later) was 47%. For the same compound, the abnormal ratio (Coptotermes formosanus [4]; bait 0.05%, 8 Days later) was 14%, the Mortality (Coptotermes formosanus [4]; bait 0.05%, 10 Days later) was 80% and the abnormal ratio (Coptotermes formosanus [4]; bait 0.05%, 10 Days later) was 7%. It also gave a Mortality (Coptotermes formosanus [4]; bait 0.05%, 14 Days later) of 100%, a Mortality (Coptotermes formosanus [4]; bait 0.05%, 17 Days later) of 100% and a Mortality (Coptotermes formosanus [4]; bait 0.05%, 23 Days later) of 100%. For the same compound, the Mortality (Coptotermes formosanus [4]; bait 0.1%, 4 Days later) was 73%, the Mortality (Coptotermes formosanus [4]; bait 0.1%, 8 Days later) was 100% and the Mortality (Coptotermes formosanus [4]; bait 0.1%, 10 Days later) was 100%. The Mortality (Coptotermes formosanus [4]; bait 0.1%, 14 Days later) was 100%, the Mortality (Coptotermes formosanus [4]; bait 0.1%, 17 Days later) was 100% and the Mortality (Coptotermes formosanus [4]; bait 0.1%, 23 Days later) was 100%. It also gave a Mortality (Coptotermes formosanus [5]; 250 ppm solution, 1 Day later) of 0%, a Mortality (Coptotermes formosanus [5]; 250 ppm solution, 4 Days later) of 0% and an abnormal ratio (Coptotermes formosanus [5]; 250 ppm solution, 4 Days later) of 7%. For the same compound, the Mortality (Coptotermes formosanus [5]; 250 ppm solution, 11 Days later) was 100%, the Mortality (Coptotermes formosanus [5]; 1000 ppm solution, 1 Day later) was 0% and the Mortality (Coptotermes formosanus [5]; [7]) was 73%. For the same compound, the abnormal ratio (Coptotermes formosanus [5]; [7]) was 27%, the Mortality (Coptotermes formosanus [5]; 1000 ppm solution, 11 Days later) was 100% and the Mortality (Coptotermes formosanus [5]; 4000 ppm solution, 1 Day later) was 0%. For the same compound, the abnormal ratio (Coptotermes formosanus [5]; 4000 ppm solution, 1 Day later) was 100%, the Mortality (Coptotermes formosanus [5]; 4000 ppm solution, 4 Days later) was 100% and the Mortality (Coptotermes formosanus [5]; 4000 ppm solution, 11 Days later) was 100%. It also gave a Mortality (Reticulitermes speratus [6]; II-2 5 ppm alone) of 10% and a Mortality (Reticulitermes speratus [6]; II-2 10 ppm alone) of 20%.
